Test results reported in patent publication US20250171435A1, “Carbon Linked BCL Inhibitors and Senolytic Compounds and Uses Thereof” (Rubedo Life Sciences, Inc., priority 2023, published 2025).
Read-outs that look alike come from different tables or passages of the source. One block for each compound: values may come before it.

Legend:
[1] = system: senescent A549 cells; test: Senescence assay: viability of senescent A549 cells (CellTiter-Glo or XTT); type: cell-based; details: chemotherapy-induced senescent A549 cells, compounds incubated 24-72 hours, viability relative to untreated control, read-out: A549_SEN IC50 (Absolute IC50 average)
Procedure: (§1) Cells were maintained in DMEM media (high glucose, 4 mM L-glutamine, no sodium pyruvate) supplemented with 10% fetal bovine serum in a humidified incubator at 37° C. with 5% carbon dioxide. Senescence was induced via treatment with a sublethal concentration of chemotherapy (bleomycin, gemcitabine, doxorubicin, 5-fluorouridine, mitomycin C), followed by a rest period without chemotherapy similarly to what is reported by others in the field (e.g., Aoshiba et al., 2003 Eur Respir J 22:436-443). Senescence was qualified by low EdU (5-ethynyl-2′-deoxyuridine) incorporation and high SA-β-Gal (senescence-associated beta-galactosidase) staining compared to proliferating untreated cells. Senescent cells were plated into 96-well plates at a density of 5-15,000 cells/well. The next day, compounds were added in duplicate across ten different concentrations spanning roughly four Log 10 units. Cells were incubated with the compounds for 24-72 hours, at which point viability was quantified using CellTiter-Glo (Promega) or XTT (R&D Systems). The viability for treated cells was determined relative to untreated control cells. The log of the compound concentration vs. normalized mean viability was fit to a four parameters Hill function with variable slope. The bottom was constrained to be greater than zero. The X mean value for Y=50 was interpolated to determine the absolute IC50. The results in Table 1 indicate that many of the compounds are active in cells and can induce a dose dependent decrease in the viability of senescent A549 and IMR90 cells.

[2] = system: senescent IMR90 cells; test: Senescence assay: viability of senescent IMR90 cells (CellTiter-Glo or XTT); type: cell-based; details: Homo sapiens, IMR-90; chemotherapy-induced senescent IMR90 cells; compounds incubated 24-72 hours; viability relative to untreated control; read-out: IMR90_SEN IC50 (Absolute IC50 average)
Procedure: as §1

Structure (SMILES): Cc1cc(C(=O)c2ccc(-c3cnn(CC45CC6(C)CC(C)(C4)CC(OCCO)(C6)C5)c3C)c(C(=O)O)n2)nnc1Nc1nc2ccccc2s1 [Compound 1, 6-(6-(benzo[d]thiazol-2-ylamino)-5-methylpyridazine-3-carbonyl)-3-(1-(((1r,3s,5R,7S)-3-(2-hydroxyethoxy)-5,7-dimethyladamantan-1-yl)methyl)-5-methyl-1H-pyrazol-4-yl)picolinic acid]
IC50 ([1]; Homo sapiens): 1000 to 10000 nM
IC50 [2]: 100 to 1000 nM

Structure (SMILES): Cc1cc(C(=O)c2ccc(-c3cnn(CC45CC6(OCCN7CCOCC7)C[C@](C)(C4)C[C@](C)(C5)C6)c3C)c(C(=O)NS(=O)(=O)CCCCCC(=O)N[C@H](C(=O)N3C[C@H](O)C[C@H]3C(=O)N[C@@H](C)c3ccc(-c4scnc4C)cc3)C(C)(C)C)n2)nnc1Nc1nc2ccccc2s1 [Compound 4, (2S,4R)-1-[(2S)-2-[6-({6-[6-(1,3-benzothiazol-2-ylamino)-5-methylpyridazine-3-carbonyl]-3-(1-{[(1S,3R,5S,7R)-3,5-dimethyl-7-[2-(morpholin-4-yl)ethoxy]adamantan-1-yl]methyl}-5-methylpyrazol-4-yl)pyridin-2-yl}formamidosulfonyl)hexanamido]-3,3-dimethylbutanoyl]-4-hydroxy-N-[(1S)-1-[4-(4-methyl-1,3-thiazol-5-yl)phenyl]ethyl]pyrrolidine-2-carboxamide]
IC50 [1]: 100 to 1000 nM

Structure (SMILES): Cc1cc(C(=O)c2ccc(-c3cnn(CC45CC6(OCCN7CCOCC7)C[C@](C)(C4)C[C@](C)(C5)C6)c3C)c(C(=O)NS(=O)(=O)CCCCCC(=O)N[C@H](C(=O)N3C[C@@H](O)C[C@H]3C(=O)N[C@@H](C)c3ccc(-c4scnc4C)cc3)C(C)(C)C)n2)nnc1Nc1nc2ccccc2s1 [Compound 5, (2S,4S)-1-[(2S)-2-[6-({6-[6-(1,3-benzothiazol-2-ylamino)-5-methylpyridazine-3-carbonyl]-3-(1-{[(1S,3R,5S,7R)-3,5-dimethyl-7-[2-(morpholin-4-yl)ethoxy]adamantan-1-yl]methyl}-5-methylpyrazol-4-yl)pyridin-2-yl}formamidosulfonyl)hexanamido]-3,3-dimethylbutanoyl]-4-hydroxy-N-[(1S)-1-[4-(4-methyl-1,3-thiazol-5-yl)phenyl]ethyl]pyrrolidine-2-carboxamide]
IC50 [1]: 100 to 1000 nM

Second part, led by results:

IC50 ([1]; Homo sapiens): 10 to 100 nM
Structure (SMILES): C#Cc1ccc(CNC(=O)[C@@H]2C[C@H](O)CN2C(=O)[C@@H](NC(=O)CCCCCS(=O)(=O)NC(=O)c2nc(C(=O)c3cc(C)c(Nc4nc5ccccc5s4)nn3)ccc2-c2cnn(CC34CC5(C)CC(C)(C3)CC(OCCN3CCOCC3)(C5)C4)c2C)C(C)(C)C)cc1 [Compound 6, (2S,4R)-1-[(2S)-2-[6-({6-[6-(1,3-benzothiazol-2-ylamino)-5-methylpyridazine-3-carbonyl]-3-(1-{[(1S,3R,5S,7R)-3,5-dimethyl-7-[2-(morpholin-4-yl)ethoxy]adamantan-1-yl]methyl}-5-methylpyrazol-4-yl)pyridin-2-yl}formamidosulfonyl)hexanamido]-3,3-dimethylbutanoyl]-N-[(4-ethynylphenyl)methyl]-4-hydroxypyrrolidine-2-carboxamide]

IC50 ([1]; Homo sapiens): 100 to 1000 nM
Structure (SMILES): Cc1cc(C(=O)c2ccc(-c3cnn(CC45CC6(C)CC(C)(C4)CC(OCCN4CCOCC4)(C6)C5)c3C)c(C(=O)NS(=O)(=O)c3ccc(N4CC(C(=O)N[C@H](C(=O)N5C[C@H](O)C[C@H]5C(=O)N[C@H](C)c5ccc(-c6scnc6C)cc5)C(C)(C)C)C4)cc3)n2)nnc1Nc1nc2ccccc2s1 [Compound 7, 6-[6-(1,3-benzothiazol-2-ylamino)-5-methylpyridazine-3-carbonyl]-3-(1-{[(1S,3R,5S,7R)-3,5-dimethyl-7-[2-(morpholin-4-yl)ethoxy]adamantan-1-yl]methyl}-5-methylpyrazol-4-yl)-N-[4-(3-{[(2S)-1-[(2S,4R)-4-hydroxy-2-{[(1S)-1-[4-(4-methyl-1,3-thiazol-5-yl)phenyl]ethyl]carbamoyl}pyrrolidin-1-yl]-3,3-dimethyl-1-oxobutan-2-yl]carbamoyl}azetidin-1-yl)benzenesulfonyl]pyridine-2-carboxamide]

IC50 ([1]; Homo sapiens): 10 to 100 nM
Structure (SMILES): Cc1cc(C(=O)c2ccc(-c3cnn(CC45CC6(C)CC(C)(C4)CC(OCCN4CCOCC4)(C6)C5)c3C)c(C(=O)O)n2)nnc1Nc1nc2ccccc2s1 [Compound 2, 6-(6-(benzo[d]thiazol-2-ylamino)-5-methylpyridazine-3-carbonyl)-3-(1-(((1r,3R,5S,7s)-3,5-dimethyl-7-(2-morpholinoethoxy)adamantan-1-yl)methyl)-5-methyl-1H-pyrazol-4-yl)picolinic acid]
IC50 [2]: 10 to 100 nM

IC50 ([1]; Homo sapiens): 100 to 1000 nM
Structure (SMILES): Cc1cc(C(=O)c2nc(C(=O)O)c(CCCOc3ccc(C#CCN(C)C)cc3F)s2)nnc1Nc1nc2ccccc2s1 [Compound 3, 2-(6-(benzo[d]thiazol-2-ylamino)-5-methylpyridazine-3-carbonyl)-5-(3-(4-(3-(dimethylamino)prop-1-yn-1-yl)-2-fluorophenoxy)propyl) thiazole-4-carboxylic acid]
IC50 [2]: 1000 to 10000 nM
